Test [1] has as its target T1, EZH2 within the PRC2 complex (Homo sapiens (Human), UniProt Q15910). In words: EZH2 methyltransferase SPA, biotinylated histone H3K27 peptide substrate (Assay Protocol 2). The format is biochemical. Conditions: 3H-SAM. Here is the method: Compounds contained herein were evaluated for their ability to inhibit the methyltransferase activity of EZH2 within the PRC2 complex. Human PRC2 complex was prepared by co-expressing each of the 5 member proteins (FLAG-EZH2, EED, SUZ12, RbAp48, AEBP2) in Sf9 cells followed by co-purification. Enzyme activity was measured in a scintillation proximity assay (SPA) where a tritiated methyl group is transferred from 3H-SAM to a lysine residue on a biotinylated, unmethylated peptide substrate derived from histone H3. The peptides were captured on streptavidin-coated SPA beads and the resulting signal was read on a ViewLux plate reader.
(§1) Part A. Compound Preparation
• 4. Prepare 10 mM stock of compounds from solid in 100% DMSO. • 5. Set up an 11-point serial dilution (1:4 dilution, top concentration 10 mM) in 100% DMSO for each test compound in a 384 well plate leaving columns 6 and 18 for DMSO controls. • 6. Dispense 10 nL of compound from the dilution plate into reaction plates (Corning, 384-well polystyrene NBS, Cat#3673). Part B. Reagent Preparation Prepare the following solutions: • 7. 1× Base Buffer, 50 mM Tris-HCl, pH 8, 2 mM MgCl2: Per 1 L of base buffer, combine 1 M Tris-HCl, pH 8 (50 mL), 1 M MgCl2 (2 mL), and distilled water (948 mL). • 8. 1× Assay Buffer: Per 10 mL of 1× Assay Buffer, combine 1× Base Buffer (9.96 mL), 1 M DTT (40 uL), and 10% Tween-20 (1 uL) to provide a final concentration of 50 mM Tris-HCl, pH 8, 2 mM MgCl2, 4 mM DTT, 0.001% Tween-20. • 9. 2× Enzyme Solution: Per 10 mL of 2× Enzyme Solution, combine 1× Assay Buffer (9.99 mL) and 3.24 uM EZH2 5 member complex (6.17 uL) to provide a final enzyme concentration of 1 nM.
10. […] Read plates • 2. Read the assay plates on the Viewlux Plate Reader utilizing the 613 nm emission filter or clear filter (300 s exposure). […]
(§2) Percent inhibition was calculated relative to the DMSO control for each compound concentration and the resulting values were fit using standard IC50 fitting parameters within the ABASE data fitting software package.

The target of test [2] is T1, EZH2 within the PRC2 complex. In words: EZH2 methyltransferase SPA, mononucleosome substrate (Assay Protocol 1). The conditions noted are these: mononucleosomes from HeLa cells, 3H-SAM. The test is classed as biochemical. Here is the method:
Compounds contained herein were evaluated for their ability to inhibit the methyltransferase activity of EZH2 within the PRC2 complex. Human PRC2 complex was prepared by co-expressing each of the 5 member proteins (FLAG-EZH2, EED, SUZ12, RbAp48, AEBP2) in Sf9 cells followed by co-purification. Enzyme activity was measured in a scintillation proximity assay (SPA) where a tritiated methyl group is transferred from 3H-SAM to a lysine residue on Histone H3 of a mononucleosome, purified from HeLa cells. Mononucleosomes were captured on SPA beads and the resulting signal is read on a ViewLux plate reader.
as §1
• 1. Prepare 10 mM stock of compounds from solid in 100% DMSO. • 2. Set up an 11-point serial dilution (1:3 dilution, top concentration 10 mM) in 100% DMSO for each test compound in a 384 well plate leaving columns 6 and 18 for DMSO controls. • 3. Dispense 100 nL of compound from the dilution plate into reaction plates (Grenier Bio-One, 384-well, Cat#784075). Part B. Reagent Preparation Prepare the following solutions: • 1. 50 mM Tris-HCl, pH 8: Per 1 L of base buffer, combine 1 M Tris-HCl, pH 8 (50 mL) and distilled water (950 mL). • 2. 1× Assay Buffer: Per 10 mL of 1× Assay Buffer, combine 50 mM Tris-HCl, pH 8 (9958 uL), 1 M MgCl2 (20 uL), 2 M DTT (20 uL), and 10% Tween-20 (2 uL) to provide a final concentration of 50 mM Tris-HCl, pH 8, 2 mM MgCl2, 4 mM DTT, 0.002% Tween-20. • 3. 2× Enzyme Solution: Per 10 mL of 2× Enzyme Solution, combine 1× Assay Buffer and PRC2 complex to provide a final enzyme concentration of 10 nM. • 4. SPA Bead Suspension: Per 1 mL of SPA Bead Suspension, combine PS-PEI coated LEADSeeker beads (40 mg) and H2O (1 mL) to provide a final concentration of 40 mg/mL. • 5. […] Read plates • 1. Read the assay plates on the Viewlux Plate Reader utilizing the 613 nm emission filter with a 300 s read time. […]
as §2

T1 sequence (Q15910 whole entry): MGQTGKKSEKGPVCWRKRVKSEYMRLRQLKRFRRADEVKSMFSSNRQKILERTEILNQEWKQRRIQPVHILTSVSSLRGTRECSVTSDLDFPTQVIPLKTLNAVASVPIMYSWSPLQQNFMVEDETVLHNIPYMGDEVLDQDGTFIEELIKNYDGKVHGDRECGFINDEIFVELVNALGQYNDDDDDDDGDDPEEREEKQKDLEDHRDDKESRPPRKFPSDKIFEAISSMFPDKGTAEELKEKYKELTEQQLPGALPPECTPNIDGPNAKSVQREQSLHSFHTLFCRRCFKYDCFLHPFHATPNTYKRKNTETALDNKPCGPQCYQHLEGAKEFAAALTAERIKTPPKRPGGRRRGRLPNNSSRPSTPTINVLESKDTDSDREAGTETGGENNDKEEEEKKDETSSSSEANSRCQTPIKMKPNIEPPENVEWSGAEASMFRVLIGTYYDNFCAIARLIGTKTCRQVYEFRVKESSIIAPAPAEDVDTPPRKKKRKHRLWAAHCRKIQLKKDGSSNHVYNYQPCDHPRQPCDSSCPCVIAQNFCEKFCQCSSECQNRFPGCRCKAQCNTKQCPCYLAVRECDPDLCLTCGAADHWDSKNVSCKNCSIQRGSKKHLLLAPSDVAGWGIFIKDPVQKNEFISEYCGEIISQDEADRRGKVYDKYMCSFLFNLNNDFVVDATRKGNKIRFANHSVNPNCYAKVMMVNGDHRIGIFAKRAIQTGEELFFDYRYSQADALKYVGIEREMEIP
T1 sequence (O75530 whole entry partner): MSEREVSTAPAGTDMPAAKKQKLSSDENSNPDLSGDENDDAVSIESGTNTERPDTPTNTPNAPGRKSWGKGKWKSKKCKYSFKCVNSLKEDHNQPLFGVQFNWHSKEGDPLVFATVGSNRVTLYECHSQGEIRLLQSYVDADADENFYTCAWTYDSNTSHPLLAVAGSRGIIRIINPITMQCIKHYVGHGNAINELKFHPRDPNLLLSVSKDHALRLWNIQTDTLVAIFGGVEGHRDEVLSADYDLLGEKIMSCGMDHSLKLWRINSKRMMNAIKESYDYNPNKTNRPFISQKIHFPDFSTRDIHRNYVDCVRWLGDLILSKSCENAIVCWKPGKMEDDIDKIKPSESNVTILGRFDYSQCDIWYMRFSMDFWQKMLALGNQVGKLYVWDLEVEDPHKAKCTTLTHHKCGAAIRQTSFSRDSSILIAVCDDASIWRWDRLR
T1 sequence (Q15022 whole entry partner): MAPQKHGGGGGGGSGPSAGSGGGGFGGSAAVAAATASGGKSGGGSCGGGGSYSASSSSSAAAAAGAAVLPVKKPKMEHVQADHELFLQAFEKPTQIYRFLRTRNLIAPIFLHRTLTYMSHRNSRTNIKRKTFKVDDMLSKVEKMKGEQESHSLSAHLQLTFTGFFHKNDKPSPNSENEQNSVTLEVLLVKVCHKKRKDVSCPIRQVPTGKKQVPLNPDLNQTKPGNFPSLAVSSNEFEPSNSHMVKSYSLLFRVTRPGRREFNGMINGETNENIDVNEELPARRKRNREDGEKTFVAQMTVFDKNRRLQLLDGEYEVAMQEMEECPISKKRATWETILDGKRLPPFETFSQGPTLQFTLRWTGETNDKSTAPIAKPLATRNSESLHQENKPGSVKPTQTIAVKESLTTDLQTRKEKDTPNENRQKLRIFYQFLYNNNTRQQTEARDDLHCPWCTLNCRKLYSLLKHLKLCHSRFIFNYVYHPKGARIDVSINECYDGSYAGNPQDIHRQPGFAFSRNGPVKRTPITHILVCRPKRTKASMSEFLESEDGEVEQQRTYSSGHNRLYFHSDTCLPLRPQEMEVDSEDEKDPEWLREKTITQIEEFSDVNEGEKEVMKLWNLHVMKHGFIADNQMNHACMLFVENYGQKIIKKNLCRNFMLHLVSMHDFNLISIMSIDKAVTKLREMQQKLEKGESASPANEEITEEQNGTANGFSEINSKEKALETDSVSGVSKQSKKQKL
T1 sequence (Q09028 whole entry partner): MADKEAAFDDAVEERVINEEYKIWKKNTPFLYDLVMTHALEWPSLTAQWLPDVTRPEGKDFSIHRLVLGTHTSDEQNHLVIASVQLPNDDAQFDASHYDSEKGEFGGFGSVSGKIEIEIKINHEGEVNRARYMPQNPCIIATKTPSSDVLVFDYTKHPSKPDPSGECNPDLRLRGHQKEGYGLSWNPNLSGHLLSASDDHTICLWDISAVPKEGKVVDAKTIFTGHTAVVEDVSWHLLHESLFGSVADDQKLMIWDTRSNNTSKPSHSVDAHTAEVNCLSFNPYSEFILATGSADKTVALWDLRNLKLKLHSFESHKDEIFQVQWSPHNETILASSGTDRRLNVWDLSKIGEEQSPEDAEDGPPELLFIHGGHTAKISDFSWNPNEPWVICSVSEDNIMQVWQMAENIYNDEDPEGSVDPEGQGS
T1 sequence (Q6ZN18 whole entry partner): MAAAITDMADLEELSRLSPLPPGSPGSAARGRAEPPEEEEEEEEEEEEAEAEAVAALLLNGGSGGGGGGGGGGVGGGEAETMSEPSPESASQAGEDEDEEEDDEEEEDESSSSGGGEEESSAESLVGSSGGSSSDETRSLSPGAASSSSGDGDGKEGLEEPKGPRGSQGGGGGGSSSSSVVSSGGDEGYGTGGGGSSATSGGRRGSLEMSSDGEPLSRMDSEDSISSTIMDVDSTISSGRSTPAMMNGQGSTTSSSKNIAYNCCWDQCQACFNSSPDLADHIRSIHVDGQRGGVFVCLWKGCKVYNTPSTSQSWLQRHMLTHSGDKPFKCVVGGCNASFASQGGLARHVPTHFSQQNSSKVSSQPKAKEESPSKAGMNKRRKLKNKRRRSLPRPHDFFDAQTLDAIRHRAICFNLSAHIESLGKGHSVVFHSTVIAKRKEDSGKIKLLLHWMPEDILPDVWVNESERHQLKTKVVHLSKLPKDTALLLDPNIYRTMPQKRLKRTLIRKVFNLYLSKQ

`CCN(c1sc(Br)c(C(=O)NCc2c(C)[nH]c(C)cc2=O)c1C)[C@H]1CC[C@H](N(C)C)CC1` [Example 4, 2-Bromo-N-((2,6-dimethyl-4-oxo-1,4-dihydropyridin-3-yl)methyl)-5-(((trans)-4-(dimethylamino)cyclohexyl)(ethyl)amino)-4-methylthiophene-3-carboxamide]: it took 160 nM to reach half-maximal inhibition in test [1] (IC50). `CCN(c1scc(C(=O)NCc2c(C)[nH]c(C)cc2=O)c1C)[C@H]1CC[C@H](N(C)C)CC1` [Example 2, N-((2,6-dimethyl-4-oxo-1,4-dihydropyridin-3-yl)methyl)-5-(((trans)-4-(dimethylamino)cyclohexyl)(ethyl)amino)-4-methylthiophene-3-carboxamide]: the IC50 in test [1] amounted to 100 nM; in test [2], 32 nM.

Take `CCN(c1scc(C(=O)NCc2c(C)[nH]c(C)c(N)c2=O)c1C)[C@H]1CC[C@H](N(C)C)CC1` [Example 3, N-((5-amino-2,6-dimethyl-4-oxo-1,4-dihydropyridin-3-yl)methyl)-5-(((trans)-4-(dimethylamino)cyclohexyl)(ethyl)amino)-4-methylthiophene-3-carboxamide]: the IC50 stood at 16 nM in test [1] and 32 nM in test [2]. As for `CCN(c1scc(C(=O)NCc2c(C)[nH]c(C)cc2=O)c1C)C1CCOCC1` [Example 1, N-((2,6-dimethyl-4-oxo-1,4-dihydropyridin-3-yl)methyl)-5-(ethyl(tetrahydro-2H-pyran-4-yl)amino)-4-methylthiophene-3-carboxamide], in test [2], the IC50 was found to be 316 nM.

These data come from US9556157B2, “Enhancer of zeste homolog 2 inhibitors” (GlaxoSmithKline Intellectual Property (No.2) Limited, priority 2013, dated 2017).
